Measurements taken from patent US5223421A, “Identification of methionine Nα-acetyltransferase” (The General Hospital Corporation, priority 1990, dated 1993).

How the values were obtained:
[1] = system: N^α -acetyltransferase activity of crude yeast lysate, wild-type (AAA1) strain T3A; assay: N^α -acetylation of peptide substrates by crude yeast lysate, wild-type strain; format: biochemical, Saccharomyces cerevisiae; details: for Activity (%) AAA1: crude lysate of wild-type strain T3A, mean ± SD (N=3-5), normalized to human adrenocorticotropic hormone (1-24), 50 μM peptide
Description: (§1) N^α -acetyltransferase activity was determined as previously described [Lee et al., J. Biol. Chem. 263:14948-14955 (1988)]. Aliquots of the lysate or chromatographic fractions were added to 1.5 ml Eppendorf tubes containing a reaction mixture of 50 mM HEPES, pH 7.4, 150 mM KCl, 1 mM DTT, 25 μM [^3 H] acetyl coenzyme A (0.5 μCi) and 50 μM synthetic peptide with an adjusted final volume of 100 μl. The assay mixture was incubated at 30° C. for 30 min. The reaction was stopped by adding 17 μl of 0.5M acetic acid and chilled in an ice bath. The reaction samples were filtered through SP membrane discs (Cuno) (previously pre-swollen in 0.5M acetic acid), and then washed three times with 1 ml of 0.5M acetic acid on a Millipore 1225 sampling manifold. The partially dried membranes were placed in scintillation cocktail and counted with a Beckman LS 3801 scintillation counter. One unit of activity was defined as the amount of enzyme able to transfer 1 pmol of [^3 H] acetyl group from [^3 H] acetyl coenzyme A to synthetic peptide per min under standard enzyme assay conditions defined above.
(§2) The wild-type (containing endogenous N^α -acetyltransferase activity) and the aaa1 (lacking endogenous N^α -acetyltransferase activity) strains were T3A and T3A-a, respectively (Lee, F-J. S., et al., J. Bacteriol. 171, 5795-5802 (1989)). Human adrenocorticotropic hormone (1-24), yeast alcohol dehydrogenase (1-24), and human superoxide dismutase (1-24) have either serine or alanine as amino-terminal residues, while proteinase A inhibitor 3 has a methionine residue. The synthesis of the peptide substrates, the preparation of the crude yeast homogenate, and the assay of enzyme activity were as previously described by Lee et al. (Lee, F-J. S., et al., J. Biol. Chem. 263:14948 (1988); Kamitani, K., et al., J. Biol. Chem. 264:13188 (1989)). The numbers in parentheses refer to the residue numbers, and the letters in parentheses specify the amino acid sequence. Abbreviations: A (alanine), C (cysteine), D (aspartic acid), E (glutamic acid), F (phenylalanine), G (glycine), H (histidine), I (isoleucine), K (lysine), L (leucine), M (methionine), N (asparagine), P (proline), Q (glutamine), R (arginine), S (serine), T (threonine), V (valine), W (tryptophan). Data are reported as mean activity±SD (N=3-5) and are normalized to the activity of the homogenate towards human adrenocorticotropic hormone (1-24).

[2] = molecular target: T1, N^α -acetyltransferase activity of crude yeast lysate, aaa1 mutant strain T3A-a (Saccharomyces cerevisiae, UniProt Q06504); assay: N^α -acetylation of peptide substrates by crude yeast lysate, aaa1 mutant strain; format: biochemical; details: for Activity (%) aaa1: crude lysate of aaa1 mutant strain T3A-a, mean ± SD (N=3-5), normalized to human adrenocorticotropic hormone (1-24), 50 μM peptide
T1 construct: a crude yeast homogenate from the aaa1 mutant strain; endogenous in cells; host or cells: Saccharomyces cerevisiae strain T3A-a (aaa1), crude lysate
T1 sequence (Q06504 1-195): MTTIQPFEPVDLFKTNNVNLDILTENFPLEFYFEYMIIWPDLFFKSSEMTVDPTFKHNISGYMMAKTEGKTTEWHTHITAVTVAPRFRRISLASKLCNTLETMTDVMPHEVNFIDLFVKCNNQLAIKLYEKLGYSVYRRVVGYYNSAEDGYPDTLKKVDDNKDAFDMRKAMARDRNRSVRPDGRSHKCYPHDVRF
T1 sequence (Q12387 1-796 partner): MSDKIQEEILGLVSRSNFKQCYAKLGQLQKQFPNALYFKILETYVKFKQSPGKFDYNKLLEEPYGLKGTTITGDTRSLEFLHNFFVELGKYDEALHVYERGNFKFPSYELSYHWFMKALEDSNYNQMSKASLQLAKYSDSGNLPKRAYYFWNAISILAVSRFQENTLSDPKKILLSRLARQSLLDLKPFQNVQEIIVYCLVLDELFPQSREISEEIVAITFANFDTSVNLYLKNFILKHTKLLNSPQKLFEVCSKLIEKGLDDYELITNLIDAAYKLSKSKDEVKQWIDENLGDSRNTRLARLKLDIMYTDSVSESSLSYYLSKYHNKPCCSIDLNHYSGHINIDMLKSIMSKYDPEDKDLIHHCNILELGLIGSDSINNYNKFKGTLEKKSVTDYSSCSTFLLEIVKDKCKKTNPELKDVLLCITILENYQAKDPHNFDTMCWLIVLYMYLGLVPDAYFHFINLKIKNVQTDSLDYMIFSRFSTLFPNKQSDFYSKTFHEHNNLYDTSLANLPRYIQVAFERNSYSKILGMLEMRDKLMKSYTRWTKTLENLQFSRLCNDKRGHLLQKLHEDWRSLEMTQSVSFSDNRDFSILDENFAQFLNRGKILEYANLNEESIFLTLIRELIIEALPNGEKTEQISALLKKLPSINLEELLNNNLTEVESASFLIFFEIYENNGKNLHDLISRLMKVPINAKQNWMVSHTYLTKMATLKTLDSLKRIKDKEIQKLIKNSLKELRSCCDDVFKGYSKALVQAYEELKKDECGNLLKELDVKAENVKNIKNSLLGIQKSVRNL
Description: as §1, §2

Substance	Activity (%) AAA1 [1] [%]	Activity (%) aaa1 [2] [%]	acetylation of the peptide substrate by wild-type strain ([1]; crude lysate, wild-type strain)	acetylation of the peptide substrate by aaa1 mutant ([2]; crude lysate, aaa1 mutant)
SIPETQKGVIFYESHGKLEYKDIP (SIPETQKGVIFYESHGKLEYKDIP) [Alcohol dehydrogenase (1-24) (Yeast)]	102 ± 5	0	–	–
SYSMEHFRWGKPVGKKRRPVKVYP	100 ± 5	0	–	–
MNTDQQKVSEIFQSSKEKLQGDAK (MNTDQQKVSEIFQSSKEKLQGDAK) [Proteinase A Inhibitor 3 (1-24) (Yeast)]	75 ± 5	80 ± 5	capable of acetylating	capable of acetylating
